# Data: US9834823B2, “Primers, assays and methods for detecting an E. coli subtype” (priority 2012, dated 2017)
# Values joined by “and” are separate entries in the source; they are usually repeats but may differ in a detail not shown here. Equal entries are not always repeated.
# What was measured:
# Type in all cases: cell-based
# [1] = tested on: Escherichia coli clinical isolates (ESBL-positive and ESBL-negative; ST131 subclones); assay: Broth microdilution antimicrobial susceptibility, NorthShore ESBL case-control isolates
# Source text: As reported elsewhere, the 267 E. coli study isolates were collected between 2007 and 2010 as part of a prospective case-control study conducted at NorthShore University HealthSystem (Banerjee, R J et al. “Predictors and molecular epidemiology of community-onset extended-spectrum beta-lactamase (ESBL) Escherichia coli infection in a Midwestern community,” 2013 Infect Control Hosp Epidemiol; in press). Cases were defined as adults with ESBL-producing E. coli cultured from any specimen type. Controls were defined as the 1 or 2 patients with non-ESBL E. coli isolates identified just subsequent to the case isolate, and with the same specimen type and location of collection. Isolates obtained in the outpatient setting or within 48 hours of hospital admission were considered causes of community-associated infection. Further study details are as described (Banerjee, R J et al. “Predictors and molecular epidemiology of community-onset extended-spectrum beta-lactamase (ESBL) Escherichia coli infection in a Midwestern community,” 2013 Infect Control Hosp Epidemiol; in press).
# The resistance score was the total number of agents to which an isolate was resistant. This study was approved by the NorthShore and VA Medical Center institutional review boards.
# [2] = tested on: Escherichia coli clinical isolates from U.S. veterans; assay: Susceptibility testing (broth microdilution or disk diffusion) at VAMCs with population back-calculations
# [3] = tested on: extraintestinal Escherichia coli isolates; assay: Antimicrobial susceptibility testing (CLSI breakpoints), Olmsted County isolates
substance,measurement,setting,value
trimethoprim-sulfamethoxazole [TMP/SMX],No. resistant (column %),"[1]; ESBL-negative isolates, All N = 167",31 (19)
same,No. resistant (column %),"[1]; ESBL-negative isolates, Non-ST131 N = 145",18 (12)
same,No. resistant (column %),"[1]; ESBL-negative isolates, ST131 N = 22",13 (59)
same,No. resistant (column %),"[1]; ESBL-positive isolates, All N = 100",63 (63)
same,No. resistant (column %),"[1]; ESBL-positive isolates, Non-ST131 N = 51",39 (76)
same,No. resistant (column %),"[1]; ESBL-positive isolates, ST131 N = 49",24 (49)
same,"No. of resistant isolates (column %), H30-Rx (N = 47)",[1]; H30-Rx subclone isolates (N = 47) within the H30 ST131 subclone,21 (45) No. (column %)
same,"No. of resistant isolates (column %), H30, non-Rx (N = 15)",[1]; H30 non-Rx isolates (N = 15) within the H30 ST131 subclone,10 (67) No. (column %)
same,"No. of resistant isolates (column %), H30 (N = 62)",[1]; H30 subclone isolates (N = 62) among 71 E. coli ST131 isolates,31 (50) No. (column %)
same,"No. of resistant isolates (column %), Non-H30 (N = 9)",[1]; non-H30 isolates (N = 9) among 71 E. coli ST131 isolates,6 (67) No. (column %)
same,"Prevalence of resistance, H30 ST131",[2]; H30 ST131 subclone isolates (H30 subclone vs. others),47
same,"Prevalence of resistance, ST131",[2]; ST131 isolates (ST131 vs. others),42
same,"Prevalence of resistance, Total (%)",[2]; all isolates,22%
same,"Prevalence of resistance, Others (%)",[2]; all non-H30 isolates (H30 subclone vs. others),14%
same,"Prevalence of resistance, Others (%)",[2]; all non-ST131 isolates (ST131 vs. others),13%
same,ST131's overall contribution to antimicrobial resistance within the source E. coli population,"[2]; back-calculations, listed as TMP-SMZ",> 50% and 56%
same,Estimated fraction due to ST131,[2]; fraction of resistance phenotype due to ST131,.56
same,"Overall prevalence in population, %","[2]; resistance phenotype, back-calculated with 29% FQ resistance",22%
same,Prevalence ratio of resistance,[2]; resistance prevalence among H30 ST131 subclone isolates relative to all other isolates,3.3
same,Prevalence ratio of resistance,[2]; resistance prevalence among ST131 isolates relative to all other isolates,2.4
same,No. of resistant isolates (column %),"[3]; All isolates, N = 299",88 (29)
same,Resistance prevalence among H30 ST131,"[3]; H30 ST131 subclone, N = 70",47%
same,No. of resistant isolates (column %),"[3]; Other STs, N = 129",37 (29)
same,No. of resistant isolates (column %),"[3]; ST9, N = 32",2 (6)
same,No. of resistant isolates (column %),"[3]; ST69, N = 15",8 (53)
same,"Prevalence of resistance, ST69",[3]; ST69 isolates,53%
same,No. of resistant isolates (column %),"[3]; ST73, N = 25",3 (12)
same,No. of resistant isolates (column %),"[3]; ST127, N = 18",1 (6)
same,No. of resistant isolates (column %),"[3]; ST131, N = 80",37 (46)
same,"Prevalence of resistance, ST131",[3]; ST131 isolates,46%
same,Resistance prevalence among non-H30 ST131,"[3]; non-H30 ST131, N = 10",40%
